Key:
[1] = tested on: Human recombinant GST-PI3K; assay: PI3K induced-lipid phosphorylation, neomycin-SPA scintillation proximity assay; type: biochemical; settings: for IC50: Human recombinant GST-PI3K, SPA
[2] = tested on: IgM-induced Akt phosphorylation in B cell; assay: IgM-induced Akt phosphorylation in B cell (PBMC, flow cytometry); type: cell-based; settings: human PBMC, CD19+ IgM+ B cells, read-out: IC50 μM, inhibition of IgM-induced Akt phosphorylation
Protocol: Human PBMC were prepared from a Buffy coat (Geneve Hospital) after a Ficoll gradient (Ficoll-Paque™ Plus PHARMACIA ref: 17-1440-03).
Cell concentration was adjusted to 10^6 cells per mL in RPMI (GIBCO Ref: 72400-21) without serum. Before stimulation, 90 μl of PBMC suspension was incubated with 10 μl of diluted compound in a 96 well round bottom plate for 20 minutes at 37° C.
For B cell activation, 30 μl of Fab′2 Goat anti IgM (Jackson Immuno-research) at10 μg/mL was added to each well. After 5 minutes, cell activation was stopped with 4% paraformaldehyde (10 minutes at room temperature).
Fixed PBMC were then treated for 20 minutes with 0.15% Triton, washed twice with PBS and permeabilized with 50% methanol for 15 minutes.
PBMC were washed twice in PBS, resuspended in: PBS-4% FCS and incubated with anti P-Akt ( 1/100 dilution) for one h at room temperature.
After one wash, PBMC were further stained for 30 minutes with a mixture of anti-CD19-PE (BD Biosciences), anti-IgM-FITC (BD Biosciences) and goat anti rabbit IgG-Alexa 647 (Molecular probe).
After washing, PBMC (Peripheral Blood Mononuclear Cells) were analysed on a FACSCalibur instrument (BD Biosciences) equipped with a 633 helium-neon laser, or stored at 4° C. for further analysis. 510^3 B cells events were gathered per sample in the CD19 positive region.
For the analysis, a threshold was applied on P-Akt histogram of CD19+ IgM+ lymphocytes cells from the non stimulated samples and the percentage of cells above this threshold was determined for each sample.

Row | IC50 [1] [µM] | IC50 [2] [µM] | Structure (SMILES) | PI3K inhibition at single concentration ([1]; at 20 μM) [% at 20 μM]
1 | 0.088 | 0.04 | COC(=O)c1ccc(OC)cc1Nc1nc2ccccc2nc1NS(=O)(=O)c1cccnc1 [Example 2] | 
2 | 0.051 | 0.037 | COc1ccc(CC2CCN(C(C)=O)CC2)c(Nc2nc3ccccc3nc2NS(=O)(=O)c2cccnc2)c1 [Example 17] | 
3 | 0.021 | 0.07 | COC(=O)c1ccc(OC)cc1Nc1nc2ccccc2nc1NS(=O)(=O)c1cn(C)cn1 [Example 1, methyl 4-methoxy-2-[(3-{[(1-methyl-1H-imidazol-4-yl)sulfonyl]amino}quinoxalin-2-yl)amino]benzoate] | 
4 | 0.13 | 0.07 | COc1ccc(CC2CCOCC2)c(Nc2nc3ccccc3nc2NS(C)(=O)=O)c1 [Example 8, N-(3-{[5-methoxy-2-(tetrahydro-2H-pyran-4-ylmethyl)phenyl]amino}quinoxalin-2-yl)methanesulfonamide] | 
5 | 0.027 | 0.01 | COc1ccc(CC2CCOCC2)c(Nc2nc3ccccc3nc2NS(=O)(=O)c2cccnc2)c1 [Example 9, N-(3-{[5-methoxy-2-(tetrahydro-2H-pyran-4-ylmethyl)phenyl]amino}quinoxalin-2-yl)pyridine-3-sulfonamide] | 
6 | 0.049 | 0.02 | COc1ccc(CC2CCOCC2)c(Nc2nc3ccccc3nc2NS(=O)(=O)c2cn(C)cn2)c1 [Example 7, N-(3-{[5-methoxy-2-(tetrahydro-2H-pyran-4-ylmethyl)phenyl]amino}quinoxalin-2-yl)-1-methyl-1H-imidazole-4-sulfonamide] | 
7 | 0.089 | 0.076 | COc1ccc(CC2CCN(C(C)=O)CC2)c(Nc2nc3ccccc3nc2NS(=O)(=O)c2cn(C)cn2)c1 [Example 16, N-[3-({2-[(1-acetylpiperidin-4-yl)methyl]-5-methoxyphenyl}amino)quinoxalin-2-yl]-1-methyl-1H-imidazole-4-sulfonamide] | 
8 | 0.03 |  | COc1ccc(CC2CCS(=O)(=O)CC2)c(Nc2nc3ccccc3nc2NS(=O)(=O)c2cn(C)cn2)c1 [Example 26, N-[3-({2-[(1,1-dioxidotetrahydro-2H-thiopyran-4-yl)methyl]-5-methoxyphenyl}amino)auinoxalin-2-yl]-1-methyl-1H-imidazole-4-sulfonamide] | 
9 | 0.42 |  | COc1ccc(CC2CC(C)(C)N(C)C(C)(C)C2)c(Nc2nc3ccccc3nc2NS(=O)(=O)c2cn(C)cn2)c1 [Example 14, N-[3-({5-methoxy-2-[(1,2,2,6,6-pentamethylpiperidin-4-yl)methyl]phenyl}amino)quinoxalin-2-yl]-1-methyl-1H-imidazole-4-sulfonamide] | 
10 | 0.087 |  | COc1ccc(CCCO)c(Nc2nc3ccccc3nc2NS(=O)(=O)c2cn(C)c(CS(C)(=O)=O)n2)c1 [Example 76, N-(3-{[2-(3-Hydroxypropyl)-5-methoxyphenyl]amino}quinoxalin-2-yl)-1-methyl-2-[(methylsulfonyl)methyl]-1H-imidazole-4-sulfonamide] | 
11 | 0.022 |  | COc1ccc(CCO)c(Nc2nc3ccccc3nc2NS(=O)(=O)c2ccc(C#N)cc2)c1 [Example 34] | 
12 | 0.044 |  | CCCS(=O)(=O)Nc1nc2ccccc2nc1Nc1cc(OC)ccc1CCO [Example 39, N-(3-{[2-(2-Hydroxyethyl)-5-methoxyphenyl]amino}quinoxalin-2-yl)propane-1-sulfonamide] | 
13 | 0.087 |  | COc1ccc(CCS(C)(=O)=O)c(Nc2nc3ccccc3nc2NS(=O)(=O)c2cn(C)c(CN(C)C)n2)c1 [Example 65, 2-[(Dimethylamino)methyl]-N-[3-({5-methoxy-2-[2-(methylsulfonyl)ethyl]phenyl}amino)quinoxalin-2-yl]-1-methyl-1H-imidazole-4-sulfonamide] | 
14 |  | 0.013 | COc1ccc(CC2CCOCC2)c(Nc2nc3ccccc3nc2NS(=O)(=O)c2ccc(CN(C)C)cc2)c1 [Example 86, 4-[(dimethylamino)methyl]-N-(3-{[methoxy-2-(tetrahydro-2H-pyran-4-ylmethyl)phenyl]amino}quinoxalin-2-yl)benzenesulfonamide] | 
15 | 0.049 |  | CCCS(=O)(=O)Nc1nc2ccccc2nc1Nc1cc(OC)ccc1CCCO [Example 49, N-(3-{[2-(3-Hydroxypropyl)-5-methoxyphenyl]amino}quinoxalin-2-yl)propane-1-sulfonamide] | 
16 | 0.043 |  | COc1ccc(CCO)c(Nc2nc3ccccc3nc2NS(=O)(=O)c2ccc(CN3CCC(F)CC3)cc2)c1 [Example 90] | 
17 | 0.12 |  | COc1ccc(CCCO)c(Nc2nc3ccccc3nc2NS(=O)(=O)CCCS(C)(=O)=O)c1 [Example 60, N-(3-{[2-(3-Hydroxypropyl)-5-methoxyphenyl]amino}quinoxalin-2-yl)-3-(methylsulfonyl)propane-1-sulfonamide] | 
18 | 0.47 |  | COc1ccc(CO)c(Nc2nc3ccccc3nc2NS(=O)(=O)c2cn(C)cn2)c1 [Example 91, N-(3-{[2-(hydroxymethyl)-5-methoxyphenyl]amino}quinoxalin-2-yl)-1-methyl-1H-imidazole-4-sulfonamide] | 
19 | 0.072 |  | COc1ccc(CN2CCOCC2)c(Nc2nc3ccccc3nc2NS(=O)(=O)c2cccnc2)c1 [Example 83, N-(3-{[5-methoxy-2-(morpholin-4-ylmethyl)phenyl]amino}quinoxalin-2-yl)pyridine-3-sulfonamide] | 
20 | 0.057 |  | COc1ccc(CCO)c(Nc2nc3ccccc3nc2NS(=O)(=O)C2CCCCC2)c1 [Example 45, N-(3-{[2-(2-Hydroxyethyl)-5-methoxyphenyl]amino}quinoxalin-2-yl) cyclohexanesulfonamide] | 
21 | 0.075 |  | COc1ccc(CCO)c(Nc2nc3ccccc3nc2NS(=O)(=O)CCCSC)c1 [Example 58, N-(3-{[2-(2-Hydroxyethyl)-5-methoxyphenyl]amino}quinoxalin-2-yl)-3-(methylthio)propane-1-sulfonamide] | 
22 | 0.01 |  | COc1ccc(CC2CCS(=O)(=O)CC2)c(Nc2nc3ccccc3nc2NS(=O)(=O)c2ccc(CN(C)C)cc2)c1 [Example 85, 4-[(dimethylamino)methyl]-N-[3-({2-[(1,1-dioxidotetrahydro-2H-thiopyran-4-yl)methyl]-5-methoxyphenyl}amino)quinoxalin-2-yl]benzenesulfonamide] | 
23 | 0.04 |  | COc1ccc(CCO)c(Nc2nc3ccccc3nc2NS(=O)(=O)c2cccnc2)c1 [Example 27, N-(3-{[2-(2-hydroxyethyl)-5-methoxyphenyl]amino}quinoxalin-2-yl)pyridine-3-sulfonamide] | 
24 | 0.095 |  | COc1ccc(CCO)c(Nc2nc3ccccc3nc2NS(C)(=O)=O)c1 [Example 37, N-(3-{[2-(2-Hydroxyethyl)-5-methoxyphenyl]amino}quinoxalin-2-yl)methanesulfonamide] | 
25 | 0.02 | 0.017 | COc1ccc(CC2CCC(O)CC2)c(Nc2nc3ccccc3nc2NS(=O)(=O)c2cccnc2)c1 (stereo not shown) [Example 23, N-[3-({2-[(4-hydroxycyclohexyl)methyl]-5-methoxyphenyl}amino)quinoxalin-2-yl]pyridine-3-sulfonamide] | 
26 | 0.083 |  | COCCc1ccc(OC)cc1Nc1nc2ccccc2nc1NS(=O)(=O)c1cn(C)cn1 [Example 62, N-(3-{[5-Methoxy-2-(2-methoxyethyl)phenyl]amino}quinoxalin-2-yl)-1-methyl-1H-imidazole-4-sulfonamide] | 
27 | 0.11 |  | COc1ccc(CN2CCN(C)CC2)c(Nc2nc3ccccc3nc2NS(=O)(=O)c2ccc(F)cc2)c1 [Example 82, 4-fluoro-N-[3-({5-methoxy-2-[(4-methylpiperazin-1-yl)methyl]phenyl}amino)quinoxalin-2-yl]benzenesulfonamide] | 
28 |  |  | COc1ccc(CC2CCCCC2)c(Nc2nc3ccccc3nc2NS(C)(=O)=O)c1 [Example 21, N-(3-{[2-(cyclohexylmethyl)-5-methoxyphenyl]amino}quinoxalin-2-yl)methanesulfonamide] | 68

Row | Structure (SMILES) | IC50 [1] [µM] | IC50 [2] [µM] | PI3K inhibition at single concentration ([1]; at 20 μM) [% at 20 μM]
29 | COc1ccc(CC2C[C@H]3CC[C@@H](C2)N3C)c(Nc2nc3ccccc3nc2NS(=O)(=O)c2cn(C)cn2)c1 (stereo partly drawn) [Example 15, N-{3-[(5-methoxy-2-{[(1R,5S)-8-methyl-8-azabicyclo[3.2.1]oct-3-yl]methyl}phenyl)amino]quinoxalin-2-yl}-1-methyl-1H-imidazole-4-sulfonamide] | 0.11 |  | 

— US8614215B2, “Quinoxaline inhibitors of phosphoinositide-3-kinases (PI3Ks)” (Merck Serono SA, priority 2007, dated 2013)
